According to ChEMBL document CHEMBL1135920, “Synthesis and in vitro antitumor activity of new deaza analogues of the nonpolyglutamatable antifolate N(alpha)-(4-amino-4-deoxypteroyl)-N(delta)-hemiphthaloyl-L-ornithine (PT523)” (J Med Chem, 2002):

How the values were obtained:
CCRF-CEM = assay: Inhibition the growth of CCRF-CEM human leukemic lymphoblasts in culture during 72 hr of continuous drug exposure; type: functional, cell-based
Dihydrofolate reductase = target: T1, Dihydrofolate reductase (Homo sapiens, UniProt P00374); assay: Inhibitory activity against human recombinant Dihydrofolate reductase
T1 sequence (P00374 whole entry): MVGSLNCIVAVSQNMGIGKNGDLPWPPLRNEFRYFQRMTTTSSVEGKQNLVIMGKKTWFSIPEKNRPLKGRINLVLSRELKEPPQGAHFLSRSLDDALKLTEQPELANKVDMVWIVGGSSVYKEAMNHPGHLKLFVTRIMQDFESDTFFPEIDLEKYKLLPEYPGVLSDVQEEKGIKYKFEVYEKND

| Compound | IC50 (CCRF-CEM) [nM] | Ki (Dihydrofolate reductase) [pM] |
| --- | --- | --- |
| CCC(Cc1cnc2nc(N)nc(N)c2n1)c1ccc(C(=O)NC(CCCNC(=O)c2ccccc2C(=O)O)C(=O)O)cc1 (centres undefined) | 1.2 | 0.62 |
| Nc1nc(N)c2cc(CNc3ccc(C(=O)NC(CCCNC(=O)c4ccccc4C(=O)O)C(=O)O)cc3)ccc2n1 (centres undefined) | 0.64 | – |
| Nc1cc(N)c2cc(CCc3ccc(C(=O)NC(CCCNC(=O)c4ccccc4C(=O)O)C(=O)O)cc3)ccc2c1 (centres undefined) | 0.69 | 0.21 |
| Nc1cc(N)c2nc(CCc3ccc(C(=O)NC(CCCNC(=O)c4ccccc4C(=O)O)C(=O)O)cc3)cnc2c1 (centres undefined) | 0.53 | 0.35 |
| C#CCC(Cc1cnc2nc(N)nc(N)c2n1)c1ccc(C(=O)NC(CCCNC(=O)c2ccccc2C(=O)O)C(=O)O)cc1 (centres undefined) | 1.3 | 0.6 |
